Measurements from US6458812B1, “Muscarinic antagonists” (Schering Corporation, priority 2000, dated 2002).
Where a name gives a salt, the structure may show the parent alone.

Assays:
[1] = Microsomal stability, monkey; format: in vitro ADME, cynomolgus monkey; conditions: monkey liver microsomes, 37° C.
Procedure: (§1) A solution of a compound of formula I at a final substrate concentration of […] and human, cynomolgus monkey or rat liver microsomes at final P450 concentrations of 0.18, 0.175 and 0.25 nmol/ml, respectively, is incubated in 0.1 M potassium phosphate buffer at pH 7.4 in 96-well micro-titre plates at 37° C. for 3 min in a shaking water bath. A cofactor solution containing MgCl2, Glucose-6-phosphate, NADPH, and Glucose-6-phosphate dehydrogenase is added to each sample (half the total incubation volume/sample) and the total incubation mixture is incubated for 0 and 30 min. (An n=3 samples is incubated for each compound). After each time point, an equal volume of CH3CN is added. The samples are mixed by vortexing and the plates are centrifuged at 3000 rpm for 20 min. The supernatant is analyzed by Liquid Chromatography Mass Spectrometry (LCMS) for parent drug and/or metabolites using an appropriate analytical method.

[2] = Microsomal stability, rat; format: in vitro ADME; conditions: rat liver microsomes, 37° C.
Procedure: as §1

[3] = Microsomal stability, human; format: in vitro ADME; conditions: human liver microsomes, 37° C.
Procedure: as §1

Row | Structure (SMILES) | % remaining after 30 min. [1] [%] | % remaining after 30 min. [2] [%] | % remaining after 30 min. [3] [%] | melting point [°C]
1 | C[C@H](NC(=O)c1ccc(CC2CCN(C3CCCCC3)CC2)cc1)c1ccc(F)cc1 [Example 2] | 80 | 79 | 80 | –
2 | C[C@H](NC(=O)c1ccc(CC2CCN(C3CCCCC3)CC2)cc1)c1ccc(F)cc1 (as salt: HCl) [Example 2] | – | – | – | 234 to 235
